Experimental data from patent publication EP4722219A1 (Gan & Lee Pharmaceuticals Co., Ltd., priority 2023, dated 2024).

Experiments:
[1] = system: T-47D cells; assay: Inhibition of cell proliferation in T-47D cells (CCK-8); type: cell-based; settings: 6 days treatment, CCK-8 cell viability
Protocol: Test Example 2 Inhibitory effect of PROTAC compounds provided by the present invention on cell proliferation in T-47D cells
The complete culture medium required for T-47D cells is 1640 (ATCC, Product number: A10491-01) basal culture medium containing 10% fetal bovine serum. T-47D cells were seeded in 96-well plates at a density of 3,000 cells/well, and different concentrations of PROTAC compounds 1-55 provided in the examples of the present invention and positive control sample ARV-471 (source: Inokai) were prepared to treat the cells and incubated at 37 °C, 5% CO2 cell culture incubator for 6 days. According to the manufacturer's instructions, cell viability was detected using a CCK-8 kit (Beyotime, Product number: C0040). The IC50 of each compound after treating for 6 days was calculated using GraphPadPrism software based on the inhibition rate. Table 2 Inhibition IC50 value of T-47D cell proliferation by PROTAC compounds provided by the present invention and positive control sample

[2] = system: MCF-7 cells; assay: Inhibition of cell proliferation in MCF-7 cells (CCK-8); type: cell-based; settings: MCF-7 cell proliferation, 6 days treatment
Protocol: Test Example 3 Inhibitory effect of PROTAC compounds provided by the present invention on cell proliferation in MCF-7 cells
The complete culture medium required for MCF-7 cells (source ATCC) is DMEM (gibco, Product number: 11995-065) basal culture medium containing 10% fetal bovine serum. MCF-7 cells were seeded in 96-well plates at a density of 800 cells/well, and different concentrations of PROTAC compounds 1-55 provided in the examples of the present invention and positive control sample ARV-471 (source: Inokai) were prepared to treat the cells and incubated at 37 °C, 5% CO2 cell culture incubator for 6 days. According to the manufacturer's instructions, cell viability was detected using a CCK-8 kit (Beyotime, Product number: C0040). The IC50 of each PROTAC compound after treating for 6 days was calculated using GraphPadPrism software based on the inhibition rate. Table 3 Inhibition IC50 value of MCF-7 cell proliferation by PROTAC compounds of the present invention and positive control sample

Row | Compound | IC50 [1] | IC50 [2] | IC50 ([1]; Homo sapiens, T47D, 144 h) | IC50 ([2]; Homo sapiens, MCF7, 144 h)
1 | O=C1CC[C@H](NC(=O)c2cc3c(cc2F)OCC32CCN(CC3CCC(OC4CCN(c5ccc([C@@H]6c7ccc(O)cc7CC[C@@H]6c6ccccc6)cc5)CC4)CC3)CC2)C(=O)N1 (stereo partly drawn) [ER-P-83, N-((S)-2,6-dioxopiperidin-3-yl)-6-fluoro-1'-(((1S,4R)-4-((1-(4-((1R,2S)-6-hydroxy-2-phenyl-1,2,3,4-tetrahydronaphthalen-1-yl)phenyl)piperidin-4-yl)oxy)cyclohexyl)methyl)-2H-spiro[benzofuran-3,4'-piperidine]-5-carboxamide] | 0.138 µM | 4.33 µM | – | –
2 | O=C1CCC(NC(=O)c2cc3c(cc2F)OC2(CC3)CCN(CC3CCC(OC4CCN(c5ccc(C6c7ccc(O)cc7CCC6c6ccccc6)cc5)CC4)CC3)CC2)C(=O)N1 [ER-P-89, N-((S)-2,6-dioxopiperidin-3-yl)-7-fluoro-1'-(((1S,4s)-4-((1-(4-((1R,2S)-6-hydroxy-2-phenyl-1,2,3,4-tetrahydronaphthalen-1-yl)phenyl)piperidin-4-yl)oxy)cyclohexyl)methyl)spiro[chromane-2,4'-piperidine]-6-carboxamide] | – | – | 0.104 µM | 2.74 µM
3 | COc1cc2c(cc1C(=O)NC1CCC(=O)NC1=O)C1(CCN(CC3CCC(OC4CCN(c5ccc(C6c7ccc(O)cc7CCC6c6ccccc6)cc5)CC4)CC3)CC1)CO2 [ER-P-91, N-((S)-2,6-dioxopiperidin-3-yl)-1'-(((1S,4R)-4-((1-(4-((1R,2S)-6-hydroxy-2-phenyl-1,2,3,4-tetrahydronaphthalen-1-yl)phenyl)piperidin-4-yl)oxy)cyclohexyl)methyl)-6-methoxy-2H-spiro[benzofuran-3,4'-piperidine]-5-carboxamide] | – | – | 0.15 µM | 7.94 µM
4 | Cn1c(=O)n(C2CCC(=O)NC2=O)c2ccc3c(c21)OCC31CCN(C(=O)C2CCN(CC3CCN(c4ccc([C@@H]5c6ccc(O)cc6CC[C@@H]5c5ccccc5)cc4)CC3)CC2)CC1 (stereo partly shown) [ER-P-74] | – | – | 0.00122 µM | 2.1 µM
5 | O=C1CCC(N2Cc3c(ccc4c3OCC43CCC4(CC3)CN(CC3CCC(OC5CCN(c6ccc([C@@H]7c8ccc(O)cc8CC[C@@H]7c7ccccc7)cc6)CC5)CC3)C4)C2=O)C(=O)N1 (stereo partly drawn) [ER-P-78, 3-(1-(((1S,4S)-4-((1-(4-((1R,2S)-6-hydroxy-2-phenyl-1,2,3,4-tetrahydronaphthalen-1-yl)phenyl)piperidin-4-yl)oxy)cyclohexyl)methyl)-6"-oxo-6'',8''-dihydro-2"H,7"H-dipyrine[azetidine-3,1'-cyclohexane-4',3"-furo[2,3-e]isoindol]-7"-yl)piperidine-2,6-dione] | 0.0058 µM | 0.737 µM | – | –
6 | O=C1CCC(NC(=O)c2cc3c(cc2F)CCC2(CCN(CC4CCC(OC5CCN(c6ccc(C7c8ccc(O)cc8CCC7c7ccccc7)cc6)CC5)CC4)CC2)O3)C(=O)N1 [ER-P-90, N-((S)-2,6-dioxopiperidin-3-yl)-6-fluoro-1'-((((1S,4R)-4-((1-(4-((1R,2S)-6-hydroxy-2-phenyl-1,2,3,4-tetrahydronaphthalen-1-yl)phenyl)piperidin-4-yl)oxy)cyclohexyl)methyl)spiro[chromane-2,4'-piperidine]-7-carboxamide] | – | – | 0.171 µM | 3.65 µM
7 | O=C1CCC(N2Cc3c(ccc4c3OCC43CCC4(CCN(C[C@H]5CC[C@@H](OC6CCN(c7ccc([C@@H]8c9ccc(O)cc9CC[C@@H]8c8ccccc8)cc7)CC6)CC5)CC4)CC3)C2=O)C(=O)N1 (stereo partly drawn) [ER-P-79, 3-(1"-(((1S,4S)-4-((1-(4-((1R,2S)-6-hydroxy-2-phenyl-1,2,3,4-tetrahydronaphthalen-1-yl)phenyl)piperidin-4-yl)oxy)cyclohexyl)methyl)-6-oxo-6,8-dihydro-2H,7H-dispiro[furo[2,3-e]isoindole-3,1'-cyclohexane-4',4"-piperidin]-7-yl)piperidine-2,6-dione] | 0.00846 µM | 0.0634 µM | – | –
8 | COc1cc2c(cc1C(=O)N[C@H]1CCC(=O)NC1=O)OCC21CCN(CC2CCC(OC3CCN(c4ccc([C@@H]5c6ccc(O)cc6CC[C@@H]5c5ccccc5)cc4)CC3)CC2)CC1 (stereo partly drawn) [ER-P-84, N-((S)-2,6-dioxopiperidin-3-yl)-1'-(((1S,4R)-4-((1-(4-((1R,2S)-6-hydroxy-2-phenyl-1,2,3,4-tetrahydronaphthalen-1-yl)phenyl)piperidin-4-yl)oxy)cyclohexyl)methyl)-5-methoxy-2H-spiro[benzofuran-3,4'-piperidine]-6-carboxamide] | 0.0177 µM | 8.33 µM | – | –
9 | N-((S)-2,6-dioxopiperidin-3-yl)-6'-fluoro-1-(((1 S,4R)-4-((1-(4-((1R,2S)-6-hydroxy-2-phenyl-1,2,3,4-tetrahydronaphthalen-1-yl)phenyl)piperidin-4-yl)oxy)cyclohexyl)methy l)spiro[azetidine-3,2'-chromane]-7'-carboxamide [ER-P-85] | 0.0709 µM | 0.956 µM | – | –
10 | CN(CC(=O)N1CCC2(CC1)COc1c2ccc2c1n(C)c(=O)n2C1CCC(=O)NC1=O)CC1CCN(c2ccc([C@@H]3c4ccc(O)cc4CC[C@@H]3c3ccccc3)cc2)CC1 (stereo partly drawn) [ER-P-75, 3-(1'-(N-((1-(4-((1R,2S)-6-hydroxy-2-phenyl-1,2,3,4-tetrahydronaphthalen-1-yl)phenyl)piperidin-4-yl)methyl)-N-methylglycyl)-1-methyl-2-oxo-1,2-dihydro-3H,7H-spiro[benzofuro[6,7-d]imidazole-6,4'-piperidin]-3-yl)piperidine-2,6-dione] | – | – | 0.00116 µM | 3 µM
11 | COc1cc2c(cc1C(=O)NC1CCC(=O)NC1=O)CCC1(CCN(CC3CCC(OC4CCN(c5ccc(C6c7ccc(O)cc7CCC6c6ccccc6)cc5)CC4)CC3)CC1)O2 (stereo not shown) [ER-P-88] | – | – | 0.00959 µM | 1.03 µM
12 | Cn1c(=O)n(C2CCC(=O)NC2=O)c2ccc3c(c21)OCC31CCN(C(=O)CN2CCC3(CCN(c4ccc([C@@H]5c6ccc(O)cc6CC[C@@H]5c5ccccc5)cc4)CC3)C2)CC1 (stereo partly drawn) [ER-P-68, 3-(1'-(2-(8-(4-((1R,2S)-6-hydroxy-2-phenyl-1,2,3,4-tetrahydronaphthalen-1-yl)phenyl)-2,8-diazaspiro[4.5]decan-2-yl)acetyl)-1-methyl-2-oxo-1,2-dihydro-3H,7H-spiro[benzofuro[6,7-d]imidazole-6,4'-piperidin]-3-yl)piperidine-2,6-dione] | – | – | 0.00118 µM | 0.00827 µM
13 | O=C1CCC(N2Cc3c(ccc4c3OCC43CCC4(CCN(C(=O)C5CCN(c6ccc([C@@H]7c8ccc(O)cc8CC[C@@H]7c7ccccc7)cc6)CC5)CC4)CC3)C2=O)C(=O)N1 (stereo partly drawn) [ER-P-76, 3-(1"-(1-(4-((1R,2S)-6-hydroxy-2-phenyl-1,2,3,4-tetrahydronaphthalen-1-yl)phenyl)piperidine-4-carbonyl)-6-oxo-6,8-dihydro-2H,7H-dipyridole[furo[2,3-e]isoindole-3,1'-cyclohexane-4',4"-piperidin]-7-yl)piperidine-2,6-dione] | – | – | 0.00575 µM | > 100 µM
14 | O=C1CC[C@H](NC(=O)c2ccc3c(c2F)OCC32CCN(CC3CCC(OC4CCN(c5ccc([C@@H]6c7ccc(O)cc7CC[C@@H]6c6ccccc6)cc5)CC4)CC3)CC2)C(=O)N1 (stereo partly drawn) [ER-P-82, N-((S)-2,6-dioxopiperidin-3-yl)-7-fluoro-1'-(((1S,4R)-4-((1-(4-((1R,2S)-6-hydroxy-2-phenyl-1,2,3,4-tetrahydronaphthalen-1-yl)phenyl)piperidin-4-yl)oxy)cyclohexyl)methyl)-2H-spiro[benzofuran-3,4'-piperidine]-6-carboxamide] | 0.0281 µM | 4.39 µM | – | –
15 | O=C1CC[C@H](NC(=O)c2c(F)ccc3c2OCC32CCN(CC3CCC(OC4CCN(c5ccc([C@@H]6c7ccc(O)cc7CC[C@@H]6c6ccccc6)cc5)CC4)CC3)CC2)C(=O)N1 (stereo partly shown) [ER-P-86] | 0.0688 µM | 6.67 µM | – | –
16 | CN(CC(=O)N1CC2(CCC3(CC2)COc2c3ccc3c2CN(C2CCC(=O)NC2=O)C3=O)C1)C1CCC2(CC1)CN(c1ccc([C@@H]3c4ccc(O)cc4CC[C@@H]3c3ccccc3)cc1)C2 (stereo partly drawn) [ER-P-72, 3-(1-(N-(2-(4-((1R,2S)-6-hydroxy-2-phenyl-1,2,3,4-tetrahydronaphthalen-1-yl)phenyl)-2-azaspiro[3.5]nonan-7-yl)-N-methylglycyl)-6"-oxo-6",8"-dihydro-2"H,7"H-dipyridole[azetidine-3,1'-cyclohexane-4',3"-furo[2,3-e]isoindol]-7"-yl)piperidine-2,6-dione] | – | – | 0.00134 µM | 14.3 µM
17 | Cn1c(=O)n(C2CCC(=O)NC2=O)c2ccc3c(c21)C1(CCN(C2CCN(C(=O)C4CCN(c5ccc([C@@H]6c7ccc(O)cc7CC[C@@H]6c6ccccc6)cc5)CC4)CC2)CC1)CO3 (stereo partly drawn) [ER-P-77, 3-(1'-(1-(4-(((1R,2S)-6-hydroxy-2-phenyl-1,2,3,4-tetrahydronaphthalen-1-yl)phenyl)piperidine-4-carbonyl)piperidin-4-yl)-1-methyl-2-oxo-1,2-dihydro-3H,7H-spiro[benzofuro[4,5-d]imidazole-8,4'-piperidin]-3-yl)piperidine-2,6-dione] | – | – | 0.00187 µM | 0.0847 µM
